Assay results from patent publication US20210290604A1, “COMPOUNDS FOR TREATMENT OF INFLAMMATORY BOWEL DISEASE AND METHODS THEREOF” (priority 2018, published 2021).

System: TNBS-induced colitis
Assay: TNBS-induced colitis in mice, oral dosing once a day Days 1-7
Format: in vivo, female SJL mice
Design: Disease Activity Index, Mean / Fecal Consistency, Mean: scale not given here
Settings: for Colon Length, Mean / Colon Weight, Mean / Colon Weight/Length ratio, Mean: at euthanasia; for Histopathological severity score, Mean: colon H&E, score 0-4; for overall conclusion as compared to TNBS-vehicle (in words): oral
Protocol: Healthy young female SJL mice were used for the study. At the commencement of the study, the mice were between 8-9 weeks of age, weighing 20-22 g. All the mice were obtained from The Jackson Laboratory, Bar Harbor, Me. 04609 USA.
After seven days of acclimatization, mice were grouped according to their body weight. There was one group of ten mice and five groups of fifteen mice each. Five groups of fifteen mice each were challenged intra-rectally with 100 μl of 2.0% TNBS in 50% EtOH and other group of ten mice were challenged intra-rectally with 100 μl of 50% EtOH and serve as No-TNBS control. The experimental groups were as follows:
The mice were challenged intra-rectally with 100 μl of 2% TNBS in 50% ethanol under light anesthesia with ketamine/xylazine. The test compounds were administrated an hour prior to intra-rectal administration of TNBS as per scheduled daily dosing.
Vehicle and no-TNBS control groups received 0.5% CMC orally from Day 1 to Day 7.
Body Weight: The body weights were measured daily for 1-7 days using a laboratory balance.
Disease Activity Index: The clinical assessment of the mice was performed beginning Day 2 (a day after the intra-rectal administration of TNBS). The clinical assessment includes body weight, stool consistency and the presence of blood in the stools and scored according to Table 2.
Colon Length and Weight: the mice were euthanized using CO2 asphyxiation and colon from the colocecal junction to the anus was removed, washed and cleaned of all fecal matter using PBS. The colon length and weight were measured and then preserved in 10% NBF for histopathology.
Histopathology: Formalin fixed colon samples were submitted to affiliated histopathology laboratory for histopathological analysis subjected to hematoxylin and eosin (H & E) staining using standard techniques. Each colon was trimmed from both ends and mid. All three sections were stained and evaluated.
A board certified veterinarian pathologist assessed the presence of colitis and severity score according to the following criteria: • 0=no sign of inflammation • 1=very low level of inflammation • 2=low level of leukocytic infiltration, low level of inflammation • 3=high level of leukocytic infiltration, high vascular density, inflammation and thickening of colon wall • 4=transmural infiltration, loss of goblet cells, high vascular density, crypt abscesses, thickening of colon wall and ulceration.
The data is presented as the mean±standard error (SEM) obtained from Microsoft Excel or GraphPad Prism version 5.00 for Windows (GraphPad Software, San Diego Calif. USA). The data was analyzed using two-way ANOVA using Bonferroni post-test. Differences between groups were considered significant at p<0.05.

C[C@@H]([C@H](O)c1ccc(O)cc1)N1CCC(Cc2ccccc2)CC1 (racemic) [Ifenprodil, 4-[2-(4-benzylpiperidin-1-ium-1-yl)-1-hydroxypropyl] phenol; 2,3,4-trihydroxy-4-oxobutanoate]
Disease Activity Index vs TNBS-vehicle group (in words) (30 mg/kg): No significant differences
histopathology, cell morphological changes / severity (in words) (30 mg/kg PO QD (Table 1)): statistically significantly reducing cell morphological changes associated with disease
body weight change as compared to the TNBS-vehicle group (in words) (30 mg/kg po): significant improvement beginning on Day 4
Percent Change in Body Weight, Mean (Day 1, 30 mg/kg PO QD): 0.00%
Percent Survivability (Day 1, 30 mg/kg PO QD): 100.000%
Disease Activity Index, Mean (Day 2, 30 mg/kg PO QD): 1.62
Fecal Consistency, Mean (Day 2, 30 mg/kg PO QD): 1.00
Occult Positivity, Mean (Day 2, 30 mg/kg PO QD): 1.86
Percent Change in Body Weight, Mean (Day 2, 30 mg/kg PO QD): −9.38%
Percent Survivability (Day 2, 30 mg/kg PO QD): 93.000%
Disease Activity Index, Mean (Day 3, 30 mg/kg PO QD): 2.04
Fecal Consistency, Mean (Day 3, 30 mg/kg PO QD): 1.71
Occult Positivity, Mean (Day 3, 30 mg/kg PO QD): 2.14
Percent Change in Body Weight, Mean (Day 3, 30 mg/kg PO QD): −11.31%
Percent Survivability (Day 3, 30 mg/kg PO QD): 93.000%
Disease Activity Index, Mean (Day 4, 30 mg/kg PO QD): 2.14
Fecal Consistency, Mean (Day 4, 30 mg/kg PO QD): 2.00
Occult Positivity, Mean (Day 4, 30 mg/kg PO QD): 2.62
Percent Change in Body Weight, Mean (Day 4, 30 mg/kg PO QD): −9.44%
Percent Survivability (Day 4, 30 mg/kg PO QD): 86.600%
Disease Activity Index, Mean (Day 5, 30 mg/kg PO QD): 1.82
Fecal Consistency, Mean (Day 5, 30 mg/kg PO QD): 1.67
Occult Positivity, Mean (Day 5, 30 mg/kg PO QD): 2.33
Percent Change in Body Weight, Mean (Day 5, 30 mg/kg PO QD): −7.64%
Percent Survivability (Day 5, 30 mg/kg PO QD): 80.000%
Disease Activity Index, Mean (Day 6, 30 mg/kg PO QD): 1.56
Fecal Consistency, Mean (Day 6, 30 mg/kg PO QD): 1.33
Occult Positivity, Mean (Day 6, 30 mg/kg PO QD): 2.00
Percent Change in Body Weight, Mean (Day 6, 30 mg/kg PO QD): −6.68%
Percent Survivability (Day 6, 30 mg/kg PO QD): 80.000%
Disease Activity Index, Mean (Day 7, 30 mg/kg PO QD): 1.41
Fecal Consistency, Mean (Day 7, 30 mg/kg PO QD): 1.17
Occult Positivity, Mean (Day 7, 30 mg/kg PO QD): 1.83
Percent Change in Body Weight, Mean (Day 7, 30 mg/kg PO QD): −6.23%
Percent Survivability (Day 7, 30 mg/kg PO QD): 80.000%
Colon Length, Mean (30 mg/kg PO QD Days 1-7): 8.93 cm
Colon Weight, Mean (30 mg/kg PO QD Days 1-7): 0.2145 g
Colon Weight/Length ratio, Mean (30 mg/kg PO QD Days 1-7): 24.5065 mg/cm
Histopathological severity score, Mean (30 mg/kg PO QD Days 1-7): 1.06
overall conclusion as compared to TNBS-vehicle (in words) (30 mg/kg): showed improvement in colitis as well as in the loss of body weight, DAI, colon length, weight and weight/length ratio

Nc1ccc(O)c(C(=O)O)c1 [5-ASA, 5-Amino-2-hydroxybenzoic acid]
histopathology, cell morphological changes / severity (in words) (100 mg/kg PO QD (Table 1)): statistically significantly reducing cell morphological changes associated with disease
body weight change as compared to the TNBS-vehicle group (in words) (100 mg/kg po): significant improvement beginning on Day 4
Percent Change in Body Weight, Mean (Day 1, 100 mg/kg PO QD): 0.00%
Percent Survivability (Day 1, 100 mg/kg PO QD): 100.000%
Fecal Consistency, Mean (Day 2, 100 mg/kg PO QD): 1.47
Occult Positivity, Mean (Day 2, 100 mg/kg PO QD): 1.33
Percent Change in Body Weight, Mean (Day 2, 100 mg/kg PO QD): −10.01%
Percent Survivability (Day 2, 100 mg/kg PO QD): 100.000%
Occult Positivity, Mean (Day 3, 100 mg/kg PO QD): 2.00
Percent Change in Body Weight, Mean (Day 3, 100 mg/kg PO QD): −10.45%
Percent Survivability (Day 3, 100 mg/kg PO QD): 100.000%
Percent Change in Body Weight, Mean (Day 4, 100 mg/kg PO QD): −9.33%
Percent Survivability (Day 4, 100 mg/kg PO QD): 93.000%
Fecal Consistency, Mean (Day 5, 100 mg/kg PO QD): 1.38
Occult Positivity, Mean (Day 5, 100 mg/kg PO QD): 2.15
Percent Change in Body Weight, Mean (Day 5, 100 mg/kg PO QD): −7.81%
Percent Survivability (Day 5, 100 mg/kg PO QD): 86.670%
Fecal Consistency, Mean (Day 6, 100 mg/kg PO QD): 0.83
Occult Positivity, Mean (Day 6, 100 mg/kg PO QD): 1.67
Percent Change in Body Weight, Mean (Day 6, 100 mg/kg PO QD): −5.87%
Percent Survivability (Day 6, 100 mg/kg PO QD): 80.000%
occult positivity as compared to TNBS-vehicle (in words) (Day 7, 100 mg/kg): significant improvements
Fecal Consistency, Mean (Day 7, 100 mg/kg PO QD): 0.83
Occult Positivity, Mean (Day 7, 100 mg/kg PO QD): 1.17
Percent Change in Body Weight, Mean (Day 7, 100 mg/kg PO QD): −6.09%
Percent Survivability (Day 7, 100 mg/kg PO QD): 80.000%
Colon Length, Mean (100 mg/kg PO QD Days 1-7): 9.08 cm
Colon Weight, Mean (100 mg/kg PO QD Days 1-7): 0.2494 g
Histopathological severity score, Mean (100 mg/kg PO QD Days 1-7): 1.08
overall conclusion as compared to TNBS-vehicle (in words) (100 mg/kg): showed improvement in the colitis, loss of body weight and disease activity index

O=C(Nc1ccc2[nH]c(=O)oc2c1)C(=O)N1CCC(Cc2ccc(F)cc2)CC1 [Radiprodil, 2-[4-[(4-fluorophenyl)methyl]piperidin-1-yl]-2-oxo-N-(2-oxo-3H-1,3-benzoxazol-6-yl)acetamide]
Disease Activity Index vs TNBS-vehicle group (in words) (30 mg/kg): No significant differences
histopathology, cell morphological changes / severity (in words) (30 mg/kg PO QD (Table 1)): reduced severity
body weight change as compared to the TNBS-vehicle group (in words) (30 mg/kg po): significant improvement beginning Day 4, with the exception of Day 3
Percent Change in Body Weight, Mean (Day 1, 30 mg/kg PO QD): 0.00%
Percent Survivability (Day 1, 30 mg/kg PO QD): 100.000%
Disease Activity Index, Mean (Day 2, 30 mg/kg PO QD): 1.84
Fecal Consistency, Mean (Day 2, 30 mg/kg PO QD): 1.20
Occult Positivity, Mean (Day 2, 30 mg/kg PO QD): 2.00
Percent Change in Body Weight, Mean (Day 2, 30 mg/kg PO QD): −10.51%
Percent Survivability (Day 2, 30 mg/kg PO QD): 100.000%
Disease Activity Index, Mean (Day 3, 30 mg/kg PO QD): 2.24
Fecal Consistency, Mean (Day 3, 30 mg/kg PO QD): 1.33
Occult Positivity, Mean (Day 3, 30 mg/kg PO QD): 2.53
Percent Change in Body Weight, Mean (Day 3, 30 mg/kg PO QD): −13.08%
Percent Survivability (Day 3, 30 mg/kg PO QD): 100.000%
Disease Activity Index, Mean (Day 4, 30 mg/kg PO QD): 2.13
Fecal Consistency, Mean (Day 4, 30 mg/kg PO QD): 1.23
Occult Positivity, Mean (Day 4, 30 mg/kg PO QD): 2.46
Percent Change in Body Weight, Mean (Day 4, 30 mg/kg PO QD): −10.35%
Percent Survivability (Day 4, 30 mg/kg PO QD): 86.670%
Disease Activity Index, Mean (Day 5, 30 mg/kg PO QD): 1.78
Fecal Consistency, Mean (Day 5, 30 mg/kg PO QD): 1.00
Occult Positivity, Mean (Day 5, 30 mg/kg PO QD): 2.33
Percent Change in Body Weight, Mean (Day 5, 30 mg/kg PO QD): −8.29%
Percent Survivability (Day 5, 30 mg/kg PO QD): 80.000%
Disease Activity Index, Mean (Day 6, 30 mg/kg PO QD): 1.67
Fecal Consistency, Mean (Day 6, 30 mg/kg PO QD): 1.00
Occult Positivity, Mean (Day 6, 30 mg/kg PO QD): 2.17
Percent Change in Body Weight, Mean (Day 6, 30 mg/kg PO QD): −7.58%
Percent Survivability (Day 6, 30 mg/kg PO QD): 80.000%
Disease Activity Index, Mean (Day 7, 30 mg/kg PO QD): 1.50
Fecal Consistency, Mean (Day 7, 30 mg/kg PO QD): 1.00
Occult Positivity, Mean (Day 7, 30 mg/kg PO QD): 1.83
Percent Change in Body Weight, Mean (Day 7, 30 mg/kg PO QD): −6.95%
Percent Survivability (Day 7, 30 mg/kg PO QD): 80.000%
Colon Length, Mean (30 mg/kg PO QD Days 1-7): 8.42 cm
Colon Weight, Mean (30 mg/kg PO QD Days 1-7): 0.3095 g
Colon Weight/Length ratio, Mean (30 mg/kg PO QD Days 1-7): 37.7622 mg/cm
Histopathological severity score, Mean (30 mg/kg PO QD Days 1-7): 1.61
overall conclusion as compared to TNBS-vehicle (in words) (30 mg/kg): showed improvement in colitis as well as in the loss of body weight, DAI, colon length, weight and weight/length ratio
